Experimental data reported in ChEMBL document CHEMBL3580542, “Inhibitors of the PD-1/PD-L1 Pathway Can Mobilize the Immune System: An Innovative Potential Therapy for Cancer and Chronic Infections” (ACS Med Chem Lett, 2015).

Target: Programmed cell death 1 ligand 1 (Homo sapiens, UniProt Q9NZQ7)
Assay: Binding affinity to His-tagged PD-L1 (unknown origin) assessed as inhibition of interaction with PD1 preincubated for 15 mins followed by PD1 addition measured after 15 mins by HTRF assay

Programmed cell death 1 ligand 1, sequence (Q9NZQ7 whole entry): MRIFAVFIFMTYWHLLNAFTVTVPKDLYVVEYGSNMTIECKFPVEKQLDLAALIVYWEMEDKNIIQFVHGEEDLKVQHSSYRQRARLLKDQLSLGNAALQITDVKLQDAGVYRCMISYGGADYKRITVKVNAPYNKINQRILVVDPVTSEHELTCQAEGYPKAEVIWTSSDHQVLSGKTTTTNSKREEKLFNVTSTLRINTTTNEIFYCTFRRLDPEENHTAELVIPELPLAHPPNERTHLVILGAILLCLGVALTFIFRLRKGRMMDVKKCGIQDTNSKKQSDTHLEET

Row | SMILES | IC50 [µM]
1 | Cc1cc(CN2CCC(C(=O)NCCO)CC2)ccc1OCc1cccc(-c2ccccc2)c1C | 0.11
2 | COc1cc(OCc2cccc(-c3ccccc3)c2C#N)cc(OC)c1CN1CCCC[C@H]1C(=O)O | 0.006
